# Key:
# [1] = molecular target: T1, AC1 (Homo sapiens, UniProt Q08828); assay: Inhibition of A23187-mediated (Ca2+-stimulated) cAMP accumulation in HEK cells stably expressing AC1; format: cell-based; conditions: for inhibition at 4 µM / inhibition at 40 µM: HEK293, read-out: AC1 Inhibition Percentage; for inhibition at 4 µM: 4 μM compound; for inhibition at 40 µM: 40 μM compound; for IC50: HEK cells stably expressing AC1, inhibitors 30 min, then 3 μM A23187 with IBMX, average and S.E.M. of at least three independent experiments, read-out: IC50 for inhibition of the A23187-mediated cAMP response of AC1
# T1 construct: expressed in transfected cells
# Experimental: HEK cells stably expressing AC1 were treated with inhibitors for 30 min, and subsequently incubated with 3 μM A23187 in the presence of 2 mM IBMX. Data represent the average and S.E.M. of at least three independent experiments.
# A23187 is a Ca2+ ionophore, which promotes Ca2+ binding to calmodulin in the cells and, subsequent stimulation of AC1.
# HEK (human embryonic kidney) cells stably expressing human AC1, were cultured in Dubelcco's Modified Eagle Medium (Life Technologies, Grand Island, N.Y.) supplemented with 5% bovine calf serum (Hyclone, Logan, Utah), 5% fetal clone I (Hyclone, Logan, Utah), Antibiotic-Antimycotic (Life Technologies, Grand Island, N.Y.), and G418 (Invivogen, San Diego, Calif.). The cells were grown to confluency in 15 cm disses, harvested using Cell Dissociation Buffer (Life Technologies, Grand Island, N.Y.), and resuspended in 4 ml of fetal bovine serum (Hyclone, Logan, Utah) containing 10% dimethyl sulfoxide (Sigma-Aldrich, St. Louis, Mo.). 1 ml of cell suspension was added to cryovials that were incubated overnight at −80° C. in a CoolCell device (BioCision, Larkspur, Calif.) for cryopreservation. On the following day, cryovials were stored in liquid N2 until the assay day.
# Cryopreserved HEK-AC1 cells were thawed in a 37° C. water-bath, resuspended in 10 ml optiMEM (Life Technologies, Grand Island, N.Y.) and centrifuged at 500×g for 5 min. The cells were resuspended in 10 ml optiMEM and the centrifugation step was repeated. Cells were then resuspended in 1 ml optiMEM and counted using a Countess automated cell counter (Life Technologies, Grand Island, N.Y.). Cells were added to a white, flat bottom, low-volume, tissue culture-treated 384 well plate (PerkinElmer, Shelton, Conn.) at a final density of 2500 cells/well. The plate was centrifuged for 1 min at 100×g and incubated in a 37° C. humidified incubator for 1 h. […] Following this incubation A23187 (Sigma-Aldrich, St. Louis, Mo.) (3 μM final concentration) containing 3-isobutyl-1-methylxanthine (Sigma-Aldrich, St. Louis, Mo.) (0.5 mM final concentration) was added. The plate was centrifuged for 1 min at 100×g and incubated at room temperature for 1 h. Cyclic AMP accumulation was measured using Cisbio's dynamic 2 kit (Cisbio Bioassays, Bedford, Mass.) according to the manufacturer's instructions. Plates were analyzed for fluorescent emissions at 620 nm and 665 nm using 330 nm as the excitation wavelength in a Cytation 3 Cell Imaging Multi-Mode Reader (Biotek, Winooski, Vt.), and ratiometric analysis was carried out by dividing the 665 nm emissions by the 620 nm emissions to extrapolate the cAMP concentrations from a cAMP standard curve. The data represent the average of at least three independent experiments ran in duplicate.
# [2] = tested on: neuroinflammatory and neuropathic pain rodent models; conditions: cited from earlier work
# T1 sequence (Q08828 whole entry): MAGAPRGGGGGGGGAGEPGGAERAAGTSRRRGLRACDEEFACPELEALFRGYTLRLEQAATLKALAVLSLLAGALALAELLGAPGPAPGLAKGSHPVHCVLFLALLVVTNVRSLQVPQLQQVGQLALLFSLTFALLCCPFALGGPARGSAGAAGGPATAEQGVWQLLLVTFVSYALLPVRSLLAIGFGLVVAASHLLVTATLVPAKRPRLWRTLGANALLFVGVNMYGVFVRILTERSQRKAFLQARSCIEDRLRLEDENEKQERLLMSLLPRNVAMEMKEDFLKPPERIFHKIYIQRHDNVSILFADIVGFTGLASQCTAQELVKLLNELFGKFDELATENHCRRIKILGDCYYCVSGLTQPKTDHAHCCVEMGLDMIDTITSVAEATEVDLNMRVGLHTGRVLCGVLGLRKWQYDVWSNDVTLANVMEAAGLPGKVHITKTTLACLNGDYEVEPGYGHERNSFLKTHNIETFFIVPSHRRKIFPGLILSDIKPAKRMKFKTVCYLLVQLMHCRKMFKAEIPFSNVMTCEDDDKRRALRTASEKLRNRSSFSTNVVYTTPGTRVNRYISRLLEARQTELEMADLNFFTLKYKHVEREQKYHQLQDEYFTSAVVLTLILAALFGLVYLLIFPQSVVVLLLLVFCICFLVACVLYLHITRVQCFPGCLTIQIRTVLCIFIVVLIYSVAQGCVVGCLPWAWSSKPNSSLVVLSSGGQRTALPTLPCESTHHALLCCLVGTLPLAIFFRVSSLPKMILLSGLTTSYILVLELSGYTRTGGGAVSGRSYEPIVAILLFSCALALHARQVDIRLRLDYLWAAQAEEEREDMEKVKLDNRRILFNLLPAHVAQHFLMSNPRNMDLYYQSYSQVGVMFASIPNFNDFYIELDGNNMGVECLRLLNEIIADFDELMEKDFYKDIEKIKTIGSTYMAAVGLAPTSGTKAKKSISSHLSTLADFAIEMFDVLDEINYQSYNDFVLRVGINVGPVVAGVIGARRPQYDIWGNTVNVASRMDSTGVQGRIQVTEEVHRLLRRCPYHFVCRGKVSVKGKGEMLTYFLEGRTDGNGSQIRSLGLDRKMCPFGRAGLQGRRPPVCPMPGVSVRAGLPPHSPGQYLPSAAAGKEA
Compound,inhibition at 4 µM [1],inhibition at 40 µM [1],IC50 [1],analgesic effects [2]
"CCOC(=O)c1ccc(/C=C/CN(CCCC(=O)OC)Cc2ccc(F)cc2)cc1 [Compound 7gd, (E)-ethyl 4-(3-((4-fluorobenzyl)(4-methoxy-4-oxobutyl)amino)prop-1-enyl)benzoate]",-24%,71%,–,–
"Clc1ccc(/C=C/CN(CCc2c[nH]c3ccccc23)Cc2ccccc2)cc1 [Compound 7af, (E)-N-(2-(1H-indol-3-yl)ethyl)-N-benzyl-3-(4-chlorophenyl)prop-2-en-1-amine]",30%,98%,–,–
"O=[N+]([O-])c1ccc(CN(C/C=C/c2ccccc2)CCc2c[nH]c3ccccc23)cc1 [Compound 7bc, (E)-N-(2-(1H-indol-3-yl)ethyl)-N-(4-nitrobenzyl)-3-phenylprop-2-en-1-amine]",29%,88%,–,–
"COc1ccc2c(c1)C(c1ccc(Br)cc1)CN(C/C=C/c1ccc(C)cc1)CC2 (stereo not shown) [Compound 7kb, (E)-1-(4-bromophenyl)-8-methoxy-3-(3-p-tolylallyl)-2,3,4,5-tetrahydro-1H-benzo[d]azepine]",8%,11%,–,–
"C(=C\c1ccccc1)/CN(CCc1c[nH]c2ccccc12)Cc1ccccc1 [Compound 7aa, (E)-N-(2-(1H-indol-3-yl)ethyl)-N-benzyl-3-phenylprop-2-en-1-amine]",41%,92%,9.92 µM,–
Nc1ncnc2c1ncn2CCNCCCCCO [NB001],–,–,–,analgesic effects
"CCOC(=O)c1ccc(/C=C/CN(CCc2c[nH]c3ccccc23)Cc2ccccc2)cc1 [Compound 7ai, (E)-ethyl 4-(3-((2-(1H-indol-3-yl)ethyl)(benzyl)amino)prop-1-enyl)benzoate]",36%,99%,–,–

# Second part, led by results:
inhibition at 4 µM [1],inhibition at 40 µM [1],Compound,IC50 [1],analgesic effects [2]
37%,91%,"CN(C/C=C/c1ccc(Cl)cc1)Cc1cccc2ccccc12 [Compound 7ff, (E)-3-(4-chlorophenyl)-N-methyl-N-(naphthalen-1-ylmethyl)prop-2-en-1-amine]",–,–
-14%,33%,"COc1ccc(/C=C/CN(C)Cc2cccc3ccccc23)cc1OC [Compound 7fk, (E)-3-(3,4-dimethoxyphenyl)-N-methyl-N-(naphthalen-1-ylmethyl)prop-2-en-1-amine]",–,–
-5.5%,85%,"Cc1ccc(S(=O)(=O)N2CCCN(C/C=C/c3ccc(Cl)cc3)CC2)cc1 [Compound 7hc, (E)-1-(3-(4-chlorophenyl)allyl)-4-tosyl-1,4-diazepane]",–,–
2%,63%,"Cc1cccc(/C=C/CN(C)Cc2cccc3ccccc23)c1 [Compound 7fb, (E)-N-methyl-N-(naphthalen-1-ylmethyl)-3-m-tolylprop-2-en-1-amine]",–,–
4%,83%,"CN(C/C=C/c1ccccc1)Cc1cccc2ccccc12 [Compound 1, (E)-N-methyl-N-(naphthalen-1-ylmethyl)-3-phenylprop-2-en-1-amine, reference compound]",–,–
-24%,70%,"COC(=O)CCCN(C/C=C/c1ccc(Cl)cc1)Cc1ccc(F)cc1 [Compound 7gc, (E)-methyl 4-((3-(4-chlorophenyl)allyl)(4-fluorobenzyl)amino)butanoate]",–,–
39%,86%,"C(=C\c1ccccc1)/CN(CCc1c[nH]c2ccccc12)Cc1cccc2ccccc12 [Compound 7c, (E)-N-(2-(1H-indol-3-yl)ethyl)-N-(naphthalen-1-ylmethyl)-3-phenylprop-2-en-1-amine]",8.95 µM,–
-8%,101%,"Cn1cc(CCN(C/C=C/c2ccccc2)Cc2ccccc2)c2ccccc21 [Compound 7d, (E)-N-benzyl-N-(2-(1-methyl-1H-indol-3-yl)ethyl)-3-phenylprop-2-en-1-amine]",–,–
